PubChem BioAssay AID330 (DTP/NCI, 2004)
Where “and” joins values, the source holds several entries; their conditions need not be identical. Identical values can stand only once. Inconclusive results and toxic doses are left out. Rule for the calls: active = survival T/C of 150% or more; inactive = T/C below 125% in these data.

Tested on: P388 leukemia ip, CD2F1 mice, survival T/C
Assay: NCI In Vivo Anticancer Drug Screen. Data for tumor model P388 Leukemia (intraperitoneal) in CD2F1 (CDF1) mice
Settings: endpoint: median survival time, higher = longer survival
Method in brief: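 Mice carrying the transplanted tumor received test compound or vehicle. Survival was recorded in each group, and the value is the treated-group measurement divided by that of the vehicle-treated control group.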

[1] = dose: 50.0 mg/kg/injection, schedule: Q01DX005 (ip), vehicle: Klucel (hydroxypropylcellulose) (HPC)
[2] = dose: 60.0 mg/kg/injection, schedule: Q01DX005 (ip), vehicle: saline with Tween-80
[3] = dose: 120.0 mg/kg/injection, schedule: Q01DX005 (ip), vehicle: saline with Tween-80
[4] = dose: 25.0 mg/kg/injection, schedule: Q01DX009 (ip), vehicle: Klucel (hydroxypropylcellulose) (HPC)
[5] = dose: 50.0 mg/kg/injection, schedule: Q01DX009 (ip), vehicle: Klucel (hydroxypropylcellulose) (HPC)
[6] = dose: 100.0 mg/kg/injection, schedule: Q01DX009 (ip), vehicle: Klucel (hydroxypropylcellulose) (HPC)
[7] = dose: 25.0 mg/kg/injection, schedule: Q01DX009 (ip), vehicle: saline with Tween-80

Measured: T/C

CC(=O)OCC1=C(C)CC(C(C)C2CCC3C4CC5OC56C(OC(C)=O)C(N5CC5)CC(=O)C6(C)C4CCC23C)OC1=O (stereo not given)
inactive: dose: 3.12 mg/kg/injection, schedule: Q01DX005 (ip), vehicle: Klucel (hydroxypropylcellulose) (HPC) 100 % of control | dose: 6.25 mg/kg/injection, schedule: Q01DX005 (ip), vehicle: Klucel (hydroxypropylcellulose) (HPC) 98 % of control | dose: 12.5 mg/kg/injection, schedule: Q01DX005 (ip), vehicle: Klucel (hydroxypropylcellulose) (HPC) 104 % of control | dose: 25.0 mg/kg/injection, schedule: Q01DX005 (ip), vehicle: Klucel (hydroxypropylcellulose) (HPC) 112 % of control | [1] 110 % of control

COc1cc(C(c2c(O)c3ccccc3oc2=O)c2c(O)c3ccccc3oc2=O)cc(OC)c1O
inactive: [2] 99 % of control | [3] 111 % of control

c1ccc2c(c1)CCNC2C1NCCc2ccccc21 (stereo not given)
inactive: dose: 12.5 mg/kg/injection, schedule: Q01DX009 (ip), vehicle: Klucel (hydroxypropylcellulose) (HPC) 107 % of control | [4] 100 % of control | [5] 104 % of control | dose: 100.0 mg/kg/injection, schedule: Q01DX001 (ip), vehicle: Klucel (hydroxypropylcellulose) (HPC) 109 % of control | [6] 105 % of control and 91 % of control | dose: 200.0 mg/kg/injection, schedule: Q01DX001 (ip), vehicle: Klucel (hydroxypropylcellulose) (HPC) 107 % of control

CCCCCN(CCCCC)CCCCC
inactive: [7] 86 % of control | dose: 50.0 mg/kg/injection, schedule: Q01DX009 (ip), vehicle: saline with Tween-80 98 % of control | dose: 100.0 mg/kg/injection, schedule: Q01DX009 (ip), vehicle: saline with Tween-80 101 % of control | dose: 200.0 mg/kg/injection, schedule: Q01DX009 (ip), vehicle: saline with Tween-80 88 % of control

CCC12C=CCN3CCC4(c5cc(C6(C(=O)OC)CCCCCc7c6[nH]c6ccccc76)c(OC)cc5N(C)C4C(O)(C(=O)OC)C1OC(C)=O)C32 (stereo not given)
inactive: dose: 12.5 mg/kg/injection, schedule: Q01DX001 (ip), vehicle: distilled water + Tween-80 106 % of control | dose: 25.0 mg/kg/injection, schedule: Q01DX001 (ip), vehicle: distilled water + Tween-80 109 % of control | dose: 50.0 mg/kg/injection, schedule: Q01DX001 (ip), vehicle: distilled water + Tween-80 106 % of control | dose: 100.0 mg/kg/injection, schedule: Q01DX001 (ip), vehicle: distilled water + Tween-80 95 % of control | dose: 200.0 mg/kg/injection, schedule: Q01DX001 (ip), vehicle: distilled water + Tween-80 95 % of control

CC(=O)/C=C(\C)NCCN/C(C)=C/C(C)=O
inactive: dose: 60.0 mg/kg/injection, schedule: Q01DX005 (ip), vehicle: saline 101 % of control | dose: 120.0 mg/kg/injection, schedule: Q01DX005 (ip), vehicle: saline 98 % of control | dose: 240.0 mg/kg/injection, schedule: Q01DX005 (ip), vehicle: saline 98 % of control

c1ccc(Nc2ccc(CN3CCOCC3)cc2)cc1
inactive: dose: 60.0 mg/kg/injection, schedule: Q01DX005 (ip), vehicle: Klucel (hydroxypropylcellulose) (HPC) 105 % of control | dose: 120.0 mg/kg/injection, schedule: Q01DX005 (ip), vehicle: Klucel (hydroxypropylcellulose) (HPC) 96 % of control | dose: 240.0 mg/kg/injection, schedule: Q01DX005 (ip), vehicle: Klucel (hydroxypropylcellulose) (HPC) 88 % of control

CC(C)C[C@H](O)C(=O)O
inactive: dose: 50.0 mg/kg/injection, schedule: Q04DX003 (ip), vehicle: saline 100 % of control | dose: 100.0 mg/kg/injection, schedule: Q04DX003 (ip), vehicle: saline 100 % of control | dose: 200.0 mg/kg/injection, schedule: Q04DX003 (ip), vehicle: saline 100 % of control

CCOC(=O)C1=C(NC(C)=O)Sc2ccccc2C1
inactive: dose: 50.0 mg/kg/injection, schedule: Q01DX009 (ip), vehicle: saline 94 % of control | dose: 100.0 mg/kg/injection, schedule: Q01DX009 (ip), vehicle: saline 103 % of control | dose: 200.0 mg/kg/injection, schedule: Q01DX009 (ip), vehicle: saline 92 % of control

CCCCCCCCCCCCN1CCS(=O)(=O)CC1
inactive: [4] 112 % of control | [5] 95 % of control | [6] 118 % of control | dose: 200.0 mg/kg/injection, schedule: Q01DX009 (ip), vehicle: Klucel (hydroxypropylcellulose) (HPC) 101 % of control

O=C(COc1ccc(Cl)cc1Cl)NC(O)C(Cl)(Cl)Cl (stereo not given)
inactive: dose: 100.0 mg/kg/injection, schedule: Q04DX003 (ip), vehicle: saline with Tween-80 108 % of control | dose: 200.0 mg/kg/injection, schedule: Q04DX003 (ip), vehicle: saline with Tween-80 116 % of control | dose: 400.0 mg/kg/injection, schedule: Q04DX003 (ip), vehicle: saline with Tween-80 100 % of control

O=CNC(Cc1cnc[nH]1)C(=O)O (stereo not given)
inactive: dose: 50.0 mg/kg/injection, schedule: Q01DX005 (ip), vehicle: saline with Tween-80 100 % of control | dose: 100.0 mg/kg/injection, schedule: Q01DX005 (ip), vehicle: saline with Tween-80 98 % of control | dose: 200.0 mg/kg/injection, schedule: Q01DX005 (ip), vehicle: saline with Tween-80 97 % of control

CC(C)CC([NH-])C(=O)O.[C-]#[O+].[C-]#[O+].[Rh] (stereo not given)
inactive: dose: 6.25 mg/kg/injection, schedule: Q01DX009 (ip), vehicle: saline with Tween-80 113 % of control | dose: 12.5 mg/kg/injection, schedule: Q01DX009 (ip), vehicle: saline with Tween-80 115 % of control | [7] 109 % of control

Cc1coc2c1[C@H]1OC(=O)C3=CCC[C@H](C2)[C@@]31C
inactive: dose: 7.5 mg/kg/injection, schedule: Q01DX009 (ip), vehicle: saline with Tween-80 100 % of control | dose: 15.0 mg/kg/injection, schedule: Q01DX009 (ip), vehicle: saline with Tween-80 100 % of control | dose: 30.0 mg/kg/injection, schedule: Q01DX009 (ip), vehicle: saline with Tween-80 101 % of control | dose: 60.0 mg/kg/injection, schedule: Q01DX009 (ip), vehicle: saline with Tween-80 98 % of control

O=S(=O)(ON=C1C=CC(=NOS(=O)(=O)c2ccccc2)C=C1)c1ccccc1
inactive: dose: 25.0 mg/kg/injection, schedule: Q04DX003 (ip), vehicle: Klucel (hydroxypropylcellulose) (HPC) 107 % of control and 94 % of control | dose: 50.0 mg/kg/injection, schedule: Q04DX003 (ip), vehicle: Klucel (hydroxypropylcellulose) (HPC) 103 % of control and 87 % of control and 94 % of control | dose: 100.0 mg/kg/injection, schedule: Q04DX003 (ip), vehicle: Klucel (hydroxypropylcellulose) (HPC) 94 % of control | dose: 200.0 mg/kg/injection, schedule: Q04DX003 (ip), vehicle: Klucel (hydroxypropylcellulose) (HPC) 99 % of control and 100 % of control | dose: 400.0 mg/kg/injection, schedule: Q04DX003 (ip), vehicle: Klucel (hydroxypropylcellulose) (HPC) 116 % of control

CC(C)=CCN1CCC2(C)c3cc(O)ccc3CCC2C1 (stereo not given)
inactive: [1] 94 % of control | dose: 100.0 mg/kg/injection, schedule: Q01DX005 (ip), vehicle: Klucel (hydroxypropylcellulose) (HPC) 104 % of control | dose: 200.0 mg/kg/injection, schedule: Q01DX005 (ip), vehicle: Klucel (hydroxypropylcellulose) (HPC) 94 % of control

Cc1ccc(NC(=O)CCSC(=O)Nc2ccc(C)cc2)cc1
inactive: dose: 100.0 mg/kg/injection, schedule: Q04DX002 (ip), vehicle: Klucel (hydroxypropylcellulose) (HPC) 101 % of control | dose: 200.0 mg/kg/injection, schedule: Q04DX002 (ip), vehicle: Klucel (hydroxypropylcellulose) (HPC) 104 % of control | dose: 400.0 mg/kg/injection, schedule: Q04DX002 (ip), vehicle: Klucel (hydroxypropylcellulose) (HPC) 104 % of control

c1csc(C2N3CCN(CC3)C(c3cccs3)N3CCN2CC3)c1 (stereo not given)
inactive: [2] 100 % of control | [3] 104 % of control | dose: 240.0 mg/kg/injection, schedule: Q01DX005 (ip), vehicle: saline with Tween-80 103 % of control
